Earlier results on 1 molecule are cited in patent US12448518B2, “Phthalocyanine dye compounds, conjugates and methods of use thereof” (Rakuten Medical, Inc., priority 2020, dated 2025).

The conditions of the series: reference in N,N-dimethylformamide; cited from earlier work.

With `[Zn+2].c1ccc2c(c1)-c1nc-2nc2[n-]c(nc3nc([n-]c4nc(n1)-c1ccccc1-4)-c1ccccc1-3)c1ccccc21` [ZnPc], the ΦΔ of reference is reported as 0.67.
